Experimental findings from patent US20100098654A1 are described below.

Some results are limits rather than exact numbers.

Assay [1] deals with human neuroblastoma cells (HTLA-230). Kind of assay: Pseudometastatic human neuroblastoma (HTLA-230) xenografted mice, survival. Conditions: HTLA-230 i.v. in nude mice, 10 mg/kg q2d×5. Format: in vivo. The method, then: Xenografts were established in mice by injecting human neuroblastoma cells (HTLA-230) intravenously at zero time point.
Four-week-old female athymic nude (nu/nu) mice were purchased from Harlan Laboratories (Harlan Italy-S.Pietro al Natisone, UD). Eight mice/group were injected with the human NB cell line, HTLA-230 (3.5×10^6 cells in 200 μl of HEPES-buffered saline) in the tail vein (i.v.) on day 0. The mice were then randomly assigned to each test group (8 mice per group). […] Control group received HEPES-buffered saline. The mice were monitored routinely for weight loss. Survival times were used as the criteria for determining treatment efficacy.
(In general: In xenograft studies the graft and the host belong to different species.)

Assay [2] relates to human neuroblastoma cells NXS2. Kind of assay: NXS2 xenografted mice, survival. In kind it is in vivo. The conditions noted are these: NXS2 in A/J mice. The protocol:
Xenograft tumors were established in immunocompetent A/J mice by injecting […] neuroblastoma cells, NXS2, in the adrenal gland.
The immunocompetent mice were injected with another […] NB cell, NXS2 of 5×10^4 cells or 5×10^5 cells in the left adrenal gland. Tumors were allowed to grow for 2 days and reached the average volume of approximately 200 mm^3. […] Control group received HEPES-buffered saline. Survival time was used as the criteria for determining treatment efficacy.

The test system of assay [3] is human neuroblastoma cells (GI-LI-N). Kind of assay: Orthotopic human neuroblastoma (GI-LI-N) xenografted mice. In kind it is in vivo, mouse (human tumor xenograft). The method, then:
Xenograft tumors were established in mice by injecting human neuroblastoma cells (GI-LI-N) in the adrenal gland.
Five-week-old female athymic nude (nu/nu) mice were randomly assigned to each test group (8 mice per group). Eight mice/group were anaesthetised and injected with the human NB cell line, GI-LI-N (1×10^6 cells in 15 μl of HEPES buffer), after laparatomy, in the capsule of the left adrenal gland. Mice were monitored at least two times weekly for evidence of tumor development, quantification of tumor size, and evidence of tumor-associated morbidity. […] Control group received HEPES-buffered saline. The body weight and general physical status of the animals was observed daily and any mouse was terminated when a tumor reached 1000-1200 mm^3. Survival time was used as the criteria for determining treatment efficacy.
Tumors were removed from orthotopic neuroblastoma-bearing mice at day 50. Tumor sections were immunostained for NB84 as a neuroblastoma cell marker, and Ki-67 as a tumor cell proliferation marker. Cell nuclei were stained with DAPI.
Control group received HEPES-buffered saline.

Where [4] appears, read: GI-LI-N orthotopic (Example 27), 10 mg/kg q2d×5.

For the compound `CCc1c2c(nc3ccc(OC(=O)N4CCC(N5CCCCC5)CC4)cc13)-c1cc3c(c(=O)n1C2)COC(=O)[C@]3(O)CC` [CPT-11], the mice surviving result is listed as “None” in assay [1]; “None” in assay [2] (10 mg/kg/dose q2d×5); “None” in assay [2] (MTD (40 mg/kg) q2d×5); “None” in assay [3] (setting [4]); “None” in assay [3] (GI-LI-N orthotopic (Example 30), 10 mg/kg/dose day 21, 23, 25, 27, 29). Besides, the “time by which animals died” value in assay [1] (from the cancer injection) is not above 85 days; in assay [3] (setting [4]), not above 80 days; in assay [3] (GI-LI-N orthotopic (Example 30), 10 mg/kg/dose), not above 80 days. The “effect on survival rate” value in assay [3] (GI-LI-N orthotopic (Example 30), at MTD (40 mg/kg)) was “slightly improved survival rate”.
